According to the NIST ThermoML archive (doi:10.1021/acs.jced.8b00349):
± gives the expanded uncertainty stated by the source.

Legend:
[1] = mn = molality of the nth substance listed, in mol/kg; conditions: 101 kPa, Liquid; for viscosity: Falling or rolling sphere viscometry; for speed of sound: Frequency=3 MHz, Single path-length method; for mass density: Vibrating tube method
[2] = 101 kPa, Liquid, Falling or rolling sphere viscometry

NCC(=O)O [2-aminoacetic acid] + O
[1], m1 = 0.06
Conditions	mass density [kg/m3]	speed of sound [m/s]	viscosity [mPa·s]
293.15 K	1000.19 ± 0.13	1485.8 ± 1.1	1.012 ± 0.021
298.15 K	999.024 ± 0.11	1499.6 ± 1	0.908 ± 0.021
303.15 K	997.613 ± 0.11	1511.8 ± 1	0.811 ± 0.021
308.15 K	995.985 ± 0.11	1522.4 ± 1	0.733 ± 0.021
313.15 K	994.125 ± 0.13	1531.4 ± 1.1	0.666 ± 0.021

O [water]
[2]
Conditions	viscosity [mPa·s]
293.15 K	1.005 ± 0.021
298.15 K	0.894 ± 0.021
303.15 K	0.801 ± 0.021
308.15 K	0.723 ± 0.021
313.15 K	0.656 ± 0.021

O [water] + C[n+]1ccn(CCCCCn2cc[n+](C)c2)c1.[Br-].[Br-]
[1], m2 = 0
Conditions	speed of sound [m/s]	viscosity [mPa·s]
293.15 K	–	1.005 ± 0.021
298.15 K	–	0.894 ± 0.021
303.15 K	–	0.801 ± 0.021
308.15 K	–	0.723 ± 0.021
313.15 K	1529.2 ± 1	0.656 ± 0.021

O [water] + C[n+]1ccn(CCCCn2cc[n+](C)c2)c1.[Br-].[Br-]
[1], m2 = 0
Conditions	speed of sound [m/s]	viscosity [mPa·s]
293.15 K	–	1.005 ± 0.021
298.15 K	–	0.894 ± 0.021
303.15 K	–	0.801 ± 0.021
308.15 K	–	0.723 ± 0.021
313.15 K	1529.2 ± 1	0.656 ± 0.021

O [water] + C[n+]1ccn(CCCn2cc[n+](C)c2)c1.[Br-].[Br-]
[1], m2 = 0
Conditions	speed of sound [m/s]	viscosity [mPa·s]
293.15 K	–	1.005 ± 0.021
298.15 K	–	0.894 ± 0.021
303.15 K	–	0.801 ± 0.021
308.15 K	–	0.723 ± 0.021
313.15 K	1529.2 ± 1	0.656 ± 0.021
